Read-outs that look alike come from different tables or passages of the source.
Legend:
5-HT2c = biological target: T1, 5-HT2c (Homo sapiens, UniProt P28335); test: Radioligand binding, 5-HT2c ([3H]Mesulergine); settings: Table 4; [3H]Mesulergine 1 nM; read-out: Binding affinity, IC50 (nM) 5-HT2c
T1 construct: purchased Euroscreen/BioSignal Packard Inc
T1 sequence (P28335 33-458): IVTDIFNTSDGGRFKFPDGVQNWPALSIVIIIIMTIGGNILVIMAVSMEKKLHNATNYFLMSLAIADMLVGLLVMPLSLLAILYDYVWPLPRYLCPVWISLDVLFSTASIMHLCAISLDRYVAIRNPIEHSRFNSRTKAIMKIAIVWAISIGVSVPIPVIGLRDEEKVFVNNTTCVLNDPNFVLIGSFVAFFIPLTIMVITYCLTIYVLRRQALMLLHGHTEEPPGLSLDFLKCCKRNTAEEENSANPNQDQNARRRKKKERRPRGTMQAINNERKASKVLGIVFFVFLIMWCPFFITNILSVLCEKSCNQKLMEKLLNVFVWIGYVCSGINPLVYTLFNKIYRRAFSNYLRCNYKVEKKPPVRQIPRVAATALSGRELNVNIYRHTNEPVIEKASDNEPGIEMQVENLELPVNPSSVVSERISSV

5-HT7 = biological target: T2, 5-HT7 (Homo sapiens, UniProt P34969); test: Radioligand binding, 5-HT7 ([3H]LSD); settings: Table 4; [3H]LSD 3 nM; read-out: Binding affinity, IC50 (nM) 5-HT7
T2 construct: purchased Euroscreen/BioSignal Packard Inc

[1] = biological target: T3, Human serotonin 5-HT6 receptor (Homo sapiens, UniProt P50406); test: [3H]LSD binding assay on cloned 5-HT6 receptor membranes
T3 construct: made in house; host or cells: insect Sf21 cells (baculovirus vector BacPAK8)

hD2L = biological target: T4, hD2L (Homo sapiens, UniProt P14416); test: Radioligand binding, dopamine D2 ([3H]spiperone); settings: Table 4; [3H]spiperone 1 nM; read-out: Binding affinity, IC50 (nM) D2
T4 construct: purchased BioSignal Packard Inc., Montreal, Canada
How it was run: (§1)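 Membrane competition binding with [3H]spiperone (1 nM) for hD2L and hD3, or [3H]YM-09151-2 (0.06 nM) for hD4.2, each in receptor-specific Tris-HCl pH 7.4 buffer containing Mg2+/EDTA (D3 and D4 also with K+, Ca2+; D3 with 120 mM NaCl). Compounds were tested at 7-8 concentrations in duplicate, and IC50 was derived by nonlinear regression across three assays.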

hD3 = biological target: T5, hD3 (Homo sapiens, UniProt P35462); test: Radioligand binding, dopamine D3 ([3H]spiperone); settings: Table 4; [3H]spiperone 1 nM; read-out: Binding affinity, IC50 (nM) D3
T5 construct: purchased BioSignal Packard Inc., Montreal, Canada
How it was run: as §1

D1 = D1 (Homo sapiens, UniProt P21728); test: Radioligand binding, dopamine D1; settings: Table 4; read-out: Binding affinity, IC50 (nM) D1
5-HT1a = biological target: T6, 5-HT1a (Homo sapiens, UniProt P08908); test: Radioligand binding, 5-HT1a ([3H]8-OH-DPAT); settings: Table 4; [3H]8-OH-DPAT 0.5 nM; read-out: Binding affinity, IC50 (nM) 5-HT1a
T6 construct: purchased Euroscreen/BioSignal Packard Inc
T6 sequence (P08908 1-422): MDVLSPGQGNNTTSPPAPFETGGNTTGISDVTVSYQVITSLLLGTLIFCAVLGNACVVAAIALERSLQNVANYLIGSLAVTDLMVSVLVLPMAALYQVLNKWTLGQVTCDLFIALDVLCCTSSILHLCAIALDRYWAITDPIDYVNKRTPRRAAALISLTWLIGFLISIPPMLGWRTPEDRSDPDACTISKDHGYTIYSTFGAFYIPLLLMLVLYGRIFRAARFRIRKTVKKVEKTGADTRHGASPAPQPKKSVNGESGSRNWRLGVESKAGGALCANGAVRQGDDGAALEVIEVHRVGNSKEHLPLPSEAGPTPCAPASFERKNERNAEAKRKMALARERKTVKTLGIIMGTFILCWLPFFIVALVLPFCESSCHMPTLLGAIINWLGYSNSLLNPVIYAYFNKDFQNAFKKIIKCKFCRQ
How it was run: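 Binding was measured on commercial receptor membrane preparations, following the membrane supplier's own test protocol.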

5-HT2a = biological target: T7, 5-HT2a (Homo sapiens, UniProt P28223); test: Radioligand binding, 5-HT2a ([3H]Ketanserin); settings: Table 4; [3H]Ketanserin 1 nM; read-out: Binding affinity, IC50 (nM) 5-HT2a
T7 construct: purchased Euroscreen/BioSignal Packard Inc

Rotarod deficit in mice = type: in vivo, mouse; settings: mouse, in vivo, po, unit printed as image, read-out: TD50 (median neurotoxic dose)
Method: (§2) The mouse was placed on a 1 inch diameter knurled plastic rod rotating at 6 rpm (Ugo-Basile, Milano, Italy), and the rotarod deficit (%) was obtained by counting the number of animals fallen from the rotating rod within 1 min [Dunham et al., 1957] at 60, 90 and 120 min after the injection of the compound according to the invention(200, 300 or 400 ? ). […] The compounds of the examples were suspended in 3% Tween 80 solution, and were administered (p.o.) 60 min before the testing.

mice = test: Rotarod deficit in mice; type: in vivo, mouse
Method: as §2

hD4.2 receptor = biological target: T8, hD4.2 receptor (Homo sapiens, UniProt P21917, DEL265-296); test: Radioligand binding, dopamine D4 ([3H]YM-09151-2); settings: Table 4; [3H]YM-09151-2 0.06 nM; read-out: Binding affinity, IC50 (nM) D4
T8 construct: purchased BioSignal Packard Inc., Montreal, Canada
T8 sequence (P21917 with tags, fused parts or gaps DEL265-296): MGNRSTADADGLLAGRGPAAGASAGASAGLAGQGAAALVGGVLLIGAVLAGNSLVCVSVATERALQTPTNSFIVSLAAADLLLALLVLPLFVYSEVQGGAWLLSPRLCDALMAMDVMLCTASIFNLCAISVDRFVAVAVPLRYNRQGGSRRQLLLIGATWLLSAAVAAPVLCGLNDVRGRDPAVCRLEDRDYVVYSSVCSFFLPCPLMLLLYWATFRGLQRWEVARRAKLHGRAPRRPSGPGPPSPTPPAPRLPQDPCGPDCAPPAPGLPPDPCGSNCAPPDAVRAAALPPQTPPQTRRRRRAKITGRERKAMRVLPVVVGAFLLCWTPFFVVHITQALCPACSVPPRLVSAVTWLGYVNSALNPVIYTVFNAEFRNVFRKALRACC
How it was run: as §1

[2] = Table 2, 1.87 nM [3H]LSD, 37 C, 60 min, read-out: IC50 (nM), binding affinity to the 5-HT6 receptor
[3] = Table 4, read-out: Binding affinity, IC50 (nM) 5-HT6

D1, sequence (P21728 whole entry): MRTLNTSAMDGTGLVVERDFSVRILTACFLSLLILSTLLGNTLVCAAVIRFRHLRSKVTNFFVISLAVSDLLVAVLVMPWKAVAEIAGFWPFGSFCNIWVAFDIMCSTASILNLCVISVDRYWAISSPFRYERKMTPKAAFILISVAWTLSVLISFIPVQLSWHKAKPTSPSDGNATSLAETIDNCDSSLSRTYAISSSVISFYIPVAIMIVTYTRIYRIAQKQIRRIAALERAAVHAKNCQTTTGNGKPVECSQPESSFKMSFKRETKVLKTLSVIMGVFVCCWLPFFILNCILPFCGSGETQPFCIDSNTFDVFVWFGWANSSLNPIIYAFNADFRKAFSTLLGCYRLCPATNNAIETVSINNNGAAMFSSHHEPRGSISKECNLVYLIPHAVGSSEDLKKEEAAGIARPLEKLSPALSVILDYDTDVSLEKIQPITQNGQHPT
T3 sequence (P50406 whole entry): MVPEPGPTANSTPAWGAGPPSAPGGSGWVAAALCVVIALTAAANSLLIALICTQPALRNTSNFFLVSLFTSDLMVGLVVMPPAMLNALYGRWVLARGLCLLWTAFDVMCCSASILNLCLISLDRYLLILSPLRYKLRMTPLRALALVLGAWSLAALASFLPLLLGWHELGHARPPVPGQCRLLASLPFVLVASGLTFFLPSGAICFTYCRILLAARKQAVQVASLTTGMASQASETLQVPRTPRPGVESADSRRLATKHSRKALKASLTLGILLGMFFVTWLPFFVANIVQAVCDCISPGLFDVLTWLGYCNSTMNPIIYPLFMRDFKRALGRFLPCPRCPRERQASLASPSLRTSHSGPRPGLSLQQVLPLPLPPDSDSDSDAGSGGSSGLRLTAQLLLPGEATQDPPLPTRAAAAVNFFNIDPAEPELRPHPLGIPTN
T7 sequence (P28223 whole entry): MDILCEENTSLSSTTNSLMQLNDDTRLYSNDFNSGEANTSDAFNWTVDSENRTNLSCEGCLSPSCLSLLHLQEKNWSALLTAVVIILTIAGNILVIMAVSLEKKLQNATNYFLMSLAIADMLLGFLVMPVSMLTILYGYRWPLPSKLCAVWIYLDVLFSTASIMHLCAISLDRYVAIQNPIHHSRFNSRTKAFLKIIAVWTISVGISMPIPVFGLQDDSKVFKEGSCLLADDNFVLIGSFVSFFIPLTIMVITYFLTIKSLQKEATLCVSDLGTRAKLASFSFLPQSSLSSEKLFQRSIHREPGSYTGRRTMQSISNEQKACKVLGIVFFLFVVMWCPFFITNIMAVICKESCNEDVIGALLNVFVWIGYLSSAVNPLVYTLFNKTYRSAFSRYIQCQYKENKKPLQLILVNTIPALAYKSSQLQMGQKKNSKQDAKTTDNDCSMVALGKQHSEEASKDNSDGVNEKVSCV
T2 sequence (P34969 whole entry): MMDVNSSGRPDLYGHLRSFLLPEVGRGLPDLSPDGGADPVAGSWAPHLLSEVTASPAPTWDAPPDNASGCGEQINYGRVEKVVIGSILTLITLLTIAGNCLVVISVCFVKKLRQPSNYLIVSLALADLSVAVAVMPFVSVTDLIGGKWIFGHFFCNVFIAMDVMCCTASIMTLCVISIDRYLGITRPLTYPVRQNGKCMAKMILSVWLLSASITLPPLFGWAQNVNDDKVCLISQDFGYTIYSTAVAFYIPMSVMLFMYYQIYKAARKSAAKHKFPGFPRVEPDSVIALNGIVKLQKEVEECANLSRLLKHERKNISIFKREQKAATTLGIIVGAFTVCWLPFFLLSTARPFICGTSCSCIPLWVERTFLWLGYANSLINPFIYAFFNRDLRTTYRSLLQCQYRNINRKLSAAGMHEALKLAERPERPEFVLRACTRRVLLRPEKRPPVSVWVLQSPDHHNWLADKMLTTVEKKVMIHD
T5 sequence (P35462 whole entry): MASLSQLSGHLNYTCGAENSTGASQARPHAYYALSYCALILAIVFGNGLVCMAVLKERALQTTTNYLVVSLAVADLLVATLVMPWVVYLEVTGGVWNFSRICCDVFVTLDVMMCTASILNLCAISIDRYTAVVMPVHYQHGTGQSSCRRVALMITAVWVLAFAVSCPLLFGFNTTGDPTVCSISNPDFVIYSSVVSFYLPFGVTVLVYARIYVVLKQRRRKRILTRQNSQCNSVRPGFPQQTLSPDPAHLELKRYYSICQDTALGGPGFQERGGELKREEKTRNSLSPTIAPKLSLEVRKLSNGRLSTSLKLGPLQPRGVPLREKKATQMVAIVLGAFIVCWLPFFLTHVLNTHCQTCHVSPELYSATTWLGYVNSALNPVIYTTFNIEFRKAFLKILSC
T4 sequence (P14416 whole entry): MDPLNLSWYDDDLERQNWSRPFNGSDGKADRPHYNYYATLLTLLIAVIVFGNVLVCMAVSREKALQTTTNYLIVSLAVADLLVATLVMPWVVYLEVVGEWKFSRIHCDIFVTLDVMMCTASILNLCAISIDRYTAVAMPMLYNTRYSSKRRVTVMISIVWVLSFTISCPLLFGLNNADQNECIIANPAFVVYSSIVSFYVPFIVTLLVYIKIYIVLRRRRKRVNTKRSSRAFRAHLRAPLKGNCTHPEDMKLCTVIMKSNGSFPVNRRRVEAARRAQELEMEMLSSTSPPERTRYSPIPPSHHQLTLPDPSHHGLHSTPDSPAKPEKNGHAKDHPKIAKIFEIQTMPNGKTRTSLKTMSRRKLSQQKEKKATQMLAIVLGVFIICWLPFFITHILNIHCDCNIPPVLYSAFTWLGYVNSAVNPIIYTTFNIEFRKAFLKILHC

Structure (SMILES)	melting point [°C]	IC50 (5-HT2c) [nM]	IC50 (5-HT7) [nM]	IC50 [1, 2] [nM]	IC50 [1, 3] [nM]	IC50 (hD2L) [nM]	IC50 (hD3) [nM]	IC50 (D1) [nM]	IC50 (5-HT1a) [nM]	IC50 (5-HT2a) [nM]	TD50 at 120 min (Rotarod deficit in mice) [mg/kg]	Rotarod deficit (%) (mice; 200 p.o. (dose unit not given))	Rotarod deficit (%) (mice; 300 p.o. (dose unit not given))	Rotarod deficit (%) (mice; 400 p.o. (dose unit not given))	IC50 (hD4.2 receptor) [nM]	binding affinity at 5-HT6 receptor labeled by [3H]LSD, in words ([1]; comment on Table 2)
CN1CCN(c2cc(Cl)cc3c2C(=O)C(C)(c2ccc(O)cc2)C(=O)N3Cc2ccccc2)CC1 (stereo not shown) [Example 2, 1-Benzyl-7-chloro-3-(4-hydroxy-phenyl)-3-methyl-5-(4-methyl-piperazin-1-yl)-1H-quinoline-2,4-dione]	258 to 259	487	920	2.5	2.5	> 10000	589	4970	> 10000	2620	> 400	0	0	0	> 10000	–
CN1CCN(c2cc(Cl)cc3c2C(=O)C(C)(c2ccc([N+](=O)[O-])cc2)C(=O)N3Cc2ccccc2)CC1 (stereo not shown) [Example 3, 1-Benzyl-7-chloro-3-methyl-5-(4-methyl-piperazin-1-yl)-3-(4-nitro-phenyl)-1H-quinolin-2,4-dione]	179 to 180	> 10000	4570	4.7	4.7	> 10000	360	814	5730	1540	> 400	0	0	0	> 10000	–
COc1ccc(C2(C)C(=O)c3c(N4CCN(C)CC4)cc(Cl)cc3N(Cc3cccc(N)c3)C2=O)cc1 (stereo not shown) [Example 9, 1-(3-Amino-benzyl)-7-chloro-3-(4-methoxy-phenyl)-3-methyl-5-(4-methyl-piperazin-1-yl)-1H-quinoline-2,4-dione]	90 to 93	> 10000	> 10000	5.2	5.2	> 10000	821	> 10000	> 10000	> 10000	> 400	0	0	0	> 10000	–
CN1CCN(c2cc(Cl)cc3c2C(=O)C(C)(c2ccccc2)C(=O)N3Cc2ccccc2)CC1 (stereo not shown) [Example 11, 1-Benzyl-7-chloro-3-methyl-5-(4-methyl-piperazin-1-yl)-3-phenyl-1H-quinoline-2,4-dione]	138 to 140	514	2200	1.4	1.4	844	678	4670	2590	1230	> 400	0	0	0	> 10000	significant affinities
